How the values were obtained:
[1] = target: T1, mouse PPARα (Mus musculus, UniProt P23204); test: PPAR-GAL4 transactivation assay in transiently transfected CV-1 cells; format: cell-based; details: PPAR-GAL4 chimeric receptor, read-out: EC50(nM) mPPARα
T1 construct: expressed in transfected cells; host or cells: CV-1 (monkey kidney) cells, transient transfection
T1 sequence (P23204 159-468): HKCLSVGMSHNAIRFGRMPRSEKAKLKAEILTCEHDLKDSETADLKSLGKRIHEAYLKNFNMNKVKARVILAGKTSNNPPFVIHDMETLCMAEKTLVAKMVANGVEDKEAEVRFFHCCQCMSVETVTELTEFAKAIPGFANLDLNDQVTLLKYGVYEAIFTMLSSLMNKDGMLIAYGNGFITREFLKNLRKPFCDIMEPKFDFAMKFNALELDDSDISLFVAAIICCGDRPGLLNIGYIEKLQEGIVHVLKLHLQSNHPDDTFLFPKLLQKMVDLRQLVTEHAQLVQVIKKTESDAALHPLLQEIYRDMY
Procedure: (§1) To assess the functional transcriptional activity of these compounds, cell-based assays using chimeric receptor Gal4 DNA-binding domain (DBD)-NR ligand binding domain cotransfection assay (LBDs of PPARα, PPARγ, and PPARδ) were performed. As an initial screen to determine the PPARα activity and selectivity, all compounds were evaluated for in vitro potency and selectivity by transfection testing, using CV-1 cells transfected with human and mouse PPARs. MH100×4 is a luciferase reporter with four copies of a GAL4 UASG response element, where GAL-I refers to the ligand-binding domain of the indicated receptor fused to the C-terminus of the GAL4 DNA-binding domain. Assays were performed using a Biomek automated workstation in which the genes for the nuclear receptor, as well as a plasmid containing a response element upstream of a luciferase cDNA, are transfected into CV-1 cells. Compounds were evaluated for their ability to activate human and mouse PPARs at […] test concentrations. […] The transactivation activity of the series of compounds (DY121-132, 10a-g) toward PPARα was expressed as EC50, which is the concentration of the test compound that affords half-maximum activity, as summarized in Table 1.
(§2) In vitro binding and transfection studies. As an initial screen to determine the PPARα, PPARγ, and PPARδ activity, all compounds were evaluated for in vitro potency and selectivity by transfection testing, using CV-1 cells transfected with human and mouse PPARs. MH100×4 is a luciferase reporter with four copies of a GAL4 USAG response element, where GAL-I refers to the ligand-binding domain of the indicated receptor fused to the C-terminus of the GAL4 DNA-binding domain. Assays were performed using a Biomek automated workstation in which the gene for the nuclear receptor, as well as a plasmid containing a response element upstream of a luciferase cDNA, are transfected into CV-1 cells. Compounds were evaluated for their ability to activate human PPARs at 1, 2.5, 3, and 5 uM test concentrations.
(§3) Compounds were screened for agonist activity towards PPAR-GAL4 chimeric receptors in transiently transfected CV-1 cells as described. EC50 is the concentration of test compound that gave 50% maximum efficacy.

[2] = target: T2, human PPARα (Homo sapiens, UniProt Q07869); test: as above; format: cell-based; details: PPAR-GAL4 chimeric receptor, CV-1 cells; read-out: EC50(nM) hPPARα
T2 construct: expressed in transfected cells; host or cells: CV-1 (monkey kidney) cells, transient transfection
T2 sequence (Q07869 159-468): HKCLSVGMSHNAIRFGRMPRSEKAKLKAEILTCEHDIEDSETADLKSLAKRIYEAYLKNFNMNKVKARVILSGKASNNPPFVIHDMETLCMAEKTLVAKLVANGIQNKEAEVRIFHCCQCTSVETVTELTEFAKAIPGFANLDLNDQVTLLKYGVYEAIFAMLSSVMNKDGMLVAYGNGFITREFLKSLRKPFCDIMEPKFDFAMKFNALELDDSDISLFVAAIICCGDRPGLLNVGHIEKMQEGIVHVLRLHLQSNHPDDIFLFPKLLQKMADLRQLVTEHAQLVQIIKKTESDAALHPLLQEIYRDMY
Procedure: as §1
Cell-based reporter gene assays Cell based transactivation assays were performed in CV 1 cells as described (Forman, et al.). PPARα activity was assayed with a GAL4 reporter construct and fusion proteins containing the ligand binding domains of human PPARα, human PPARγ and human PPARδ linked to the DNA binding domain of yeast GAL4. Reporter constructs (300 ng/10^5 cells) and cytomegalovirus-driven expression vectors (20-50 ng/10^5 cells) were added as indicated along with CMX-b-gal (500 ng/10^5 cells) as an internal control. Cells were transiently transfected by Lipofectamine as described. Cells were incubated with DNA complexed liposomes for 2 h and subsequently treated for approximately 45 h with phenol red free DMEM FBS containing the indicated compounds. After exposure to ligand, the cells were harvested and assayed for luciferase and β-galactosidase activity. All points were assayed in triplicate and varied by less than 15%. Each experiment was repeated three or more times with similar results. Fold activation is reported.
as §2, §3

[3] = target: T3, PPARα (Homo sapiens, UniProt Q07869); test: PPRE-luc reporter assay in CV-1 cells co-transfected with PPARα and RXRα expression plasmids; format: cell-based; details: luciferase reporter
T3 construct: expressed in transfected cells; host or cells: CV-1 (monkey kidney) cells
T3 sequence (Q07869 1-468): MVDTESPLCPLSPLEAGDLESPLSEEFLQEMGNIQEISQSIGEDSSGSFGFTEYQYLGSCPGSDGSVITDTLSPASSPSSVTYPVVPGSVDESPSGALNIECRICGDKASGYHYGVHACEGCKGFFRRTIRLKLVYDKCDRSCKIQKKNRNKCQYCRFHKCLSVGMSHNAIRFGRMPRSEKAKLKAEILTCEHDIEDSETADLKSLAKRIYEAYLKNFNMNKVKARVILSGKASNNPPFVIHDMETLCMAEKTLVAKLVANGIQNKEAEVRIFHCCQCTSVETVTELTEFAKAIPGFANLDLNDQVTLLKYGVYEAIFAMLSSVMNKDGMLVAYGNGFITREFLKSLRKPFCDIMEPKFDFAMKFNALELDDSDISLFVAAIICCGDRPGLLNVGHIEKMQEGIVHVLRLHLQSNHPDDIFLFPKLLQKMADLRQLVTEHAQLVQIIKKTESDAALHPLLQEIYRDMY
T3 sequence (P19793 1-462 partner): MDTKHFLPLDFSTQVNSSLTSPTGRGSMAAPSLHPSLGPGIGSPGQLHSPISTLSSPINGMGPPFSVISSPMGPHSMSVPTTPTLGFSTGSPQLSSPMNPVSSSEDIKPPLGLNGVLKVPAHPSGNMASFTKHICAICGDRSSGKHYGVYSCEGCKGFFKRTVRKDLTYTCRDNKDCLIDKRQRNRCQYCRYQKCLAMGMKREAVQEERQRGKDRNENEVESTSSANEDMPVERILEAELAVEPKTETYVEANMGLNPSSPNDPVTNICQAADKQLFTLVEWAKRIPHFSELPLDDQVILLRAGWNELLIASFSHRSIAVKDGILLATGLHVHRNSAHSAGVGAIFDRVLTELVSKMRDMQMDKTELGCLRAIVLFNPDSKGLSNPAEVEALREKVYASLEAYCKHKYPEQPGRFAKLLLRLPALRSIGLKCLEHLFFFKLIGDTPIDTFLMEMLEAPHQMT
Procedure: In brief, monkey kidney CV-1 cells were co-transfected with appropriate reporter constructs and expression vectors. The fold activation of the reporter construct by ligand was determined at several concentrations of selected compounds (FIG. 4).^20 To examine the effect of DY-compound on PPARα-mediated PPRE transcriptional activation, a PPRE-luc reporter assay was conducted using a PPRE-driven luciferase reporter-gene (PPRE-luc) plasmid and PPARα and RXRα gene expression plasmids in CV-1 cells.

[4] = tested on: C57Bl/6J female mice; test: Serum triglyceride and lipid effects in C57Bl/6J female mice; format: in vivo; details: FIG. 7

`COc1cccc(Cn2c(CCCc3ccc(OC(C)(C)C(=O)O)cc3)nn(Cc3ccc(C)cc3)c2=O)c1` [10b, 2-(4-{3-[4-(3-Methoxy-benzyl)-1-(4-methyl-benzyl)-5-oxo-4,5-dihydro-1H[1,2,4]triazol-3-yl]-propyl}-phenoxy)-2-methyl-propionic acid] showed an EC50 [1] of 20 nM and an EC50 [2] of 2 nM.
`Cc1ccc(Cn2nc(CCCc3ccc(OC(C)(C)C(=O)O)cc3)n(Cc3ccccc3)c2=O)cc1` [10c, 2-(4-{3-[4-Benzyl-1-(4-methyl-benzyl)-5-oxo-4,5-dihydro-1H[1,2,4]triazol-3-yl]-propyl}-phenoxy)-2-methyl-propionic acid] showed an EC50 [1] of 20 nM and an EC50 [2] of 1.5 nM.
Work on `Cc1ccc(Cn2nc(CCCc3ccc(OC(C)(C)C(=O)O)cc3)n(Cc3ccc(F)cc3)c2=O)cc1` [10d, 2-(4-{3-[4-Fluoro-benzyl-1-(4-methyl-benzyl)-5-oxo-4,5-dihydro-1H[1,2,4]triazol-3-yl]-propyl}-phenoxy)-2-methyl-propionic acid] yielded an EC50 [1] of 10 nM and an EC50 [2] of 1.5 nM.
For `Cc1ccc(Cn2nc(CCCc3ccc(OC(C)(C)C(=O)O)cc3)n(Cc3ccc(C)cc3)c2=O)cc1` [10e, 2-(4-{3-[4-Methyl-benzyl-1-(4-methyl-benzyl)-5-oxo-4,5-dihydro-1H[1,2,4]triazol-3-yl]-propyl}-phenoxy)-2-methyl-propionic acid], the EC50 [1] was 3 nM, the “PPARα activation / PPRE-luc activity” value [3] was “highest PPARα activation” and the EC50 [2] was 1 nM.
With `COc1cc(Cn2c(CCCc3ccc(OC(C)(C)C(=O)O)cc3)nn(Cc3ccc(C)cc3)c2=O)cc(OC)c1OC` [10f, 2-(4-{3-[3,4,5-Trimethoxy-benzyl-1-(4-methyl-benzyl)-5-oxo-4,5-dihydro-1H[1,2,4]triazol-3-yl]-propyl}-phenoxy)-2-methyl-propionic acid] the EC50 [1] was 30 nM, the “dose-response of triglyceride suppression” value [4] was “Dose-response suppression” and the EC50 [2] was 3 nM.
For `Cc1ccc(Cn2nc(CCCc3ccc(OC(C)(C)C(=O)O)cc3)n(Cc3ccccc3Cl)c2=O)cc1` [10g, 2-(4-{3-[2-Chloro-benzyl-1-(4-methyl-benzyl)-5-oxo-4,5-dihydro-11H[1,2,4]triazol-3-yl]-propyl}-phenoxy)-2-methyl-propionic acid], the EC50 [1] was 10 nM, the “PPARα activation / PPRE-luc activity” value [3] was “highest PPARα activation” and the “dose-response of triglyceride suppression” value [4] was “Dose-response suppression”. The EC50 [2] was 1 nM.
`C=Cc1ccc(Cn2nc(CCCc3ccc(OC(C)(C)C(=O)O)cc3)n(Cc3ccc(C)cc3)c2=O)cc1` [10h] was tested, and the EC50 [1] was 20 nM and the EC50 [2] was 12 nM.
